Data taken from ChEMBL document CHEMBL4680137, “Synthesis and biological evaluation of some novel 1,2,3-triazole hybrids of myrrhanone B isolated from Commiphora mukul gum resin: Identification of potent antiproliferative leads active against prostate cancer cells (PC-3)” (Eur J Med Chem, 2020).
Active and inactive are the calls of the source. The rule behind the calls is not given here.

Legend:
[1] = Inhibition of LPS-induced TNF-alpha expression in human U-937 cells preincubated for 1 hr followed by LPS addition and measured after 24 hrs by ELISA; format: functional, cell-based
PC-3 [2] = assay: Induction of apoptosis in human PC-3 cells assessed as early apoptotic cells at 5 uM after 24 hrs by Annexin VFITC/PI staining based flow cytometric analysis (reference value: 0.1%); format: functional
PC-3 [3] = assay: Induction of cell cycle arrest in human PC-3 cells assessed as accumulation at Sub-G1 phase at 10 uM after 48 hrs by propidium iodide staining based flow cytometric analysis (reference value: 3.58%); format: functional
PC-3 [4] = assay: Induction of mitochondrial membrane potential loss in human PC-3 cells at 10 uM after 24 hrs by JC-1 dye based flow cytometric analysis relative to control; format: functional
L132 = assay: Cytotoxicity against human L132 cells assessed as reduction in cell viability after 48 hrs by MTT assay; format: cell-based; details: L132, 48 h
MDA-MB-231 = assay: Antiproliferative activity against human MDA-MB-231 cells assessed as reduction in cell viability after 48 hrs by MTT assay; format: functional, cell-based; details: MDA-MB-231, 48 h
PC-3 [5] = assay: Induction of cell cycle arrest in human PC-3 cells assessed as accumulation at Sub-G1 phase at 5 uM after 48 hrs by propidium iodide staining based flow cytometric analysis (reference value: 3.58%); format: functional
PC-3 [6] = assay: Induction of apoptosis in human PC-3 cells assessed as necrotic cells at 2.5 uM after 24 hrs by Annexin VFITC/PI staining based flow cytometric analysis (reference value: 4%); format: functional
PC-3 [7] = assay: Induction of cell cycle arrest in human PC-3 cells assessed as accumulation at G2/M phase at 5 uM after 48 hrs by propidium iodide staining based flow cytometric analysis (reference value: 20.7%); format: functional
[8] = Inhibition of LPS-induced IL-1beta expression in human U-937 cells preincubated for 1 hr followed by LPS addition and measured after 24 hrs by ELISA; format: functional, cell-based
PC-3 [9] = assay: Induction of apoptosis in human PC-3 cells assessed as destructive fragmentation of nuclei at 5 to 10 uM after 48 hrs by acridine orange and ethidium bromide staining fluorescence microscopic analysis; format: functional, cell-based; details: dose 5-10 µM
PC-3 [10] = assay: Induction of apoptosis in human PC-3 cells assessed as viable cells at 5 uM after 24 hrs by Annexin VFITC/PI staining based flow cytometric analysis (reference value: 95.8%); format: functional; details: read-out: Activity
PC-3 [11] = assay: Induction of apoptosis in human PC-3 cells assessed as early apoptotic cells at 2.5 uM after 24 hrs by Annexin VFITC/PI staining based flow cytometric analysis (reference value: 0.1%); format: functional
PC-3 [12] = assay: Induction of apoptosis in human PC-3 cells assessed as early apoptotic cells at 7.5 uM after 24 hrs by Annexin VFITC/PI staining based flow cytometric analysis (reference value: 0.1%); format: functional
PC-3 [13] = assay: Induction of apoptosis in human PC-3 cells assessed as fragmented nuclei at 5 to 10 uM after 48 hrs by Hoechst 33258 staining fluorescence microscopic analysis; format: functional, cell-based; details: dose 5-10 µM
PC-3 [14] = assay: Induction of apoptosis in human PC-3 cells assessed as viable cells at 7.5 uM after 24 hrs by Annexin VFITC/PI staining based flow cytometric analysis (reference value: 95.8%); format: functional; details: read-out: Activity
PC-3 [15] = assay: Induction of apoptosis in human PC-3 cells assessed as late apoptotic cells at 7.5 uM after 24 hrs by Annexin VFITC/PI staining based flow cytometric analysis (reference value: 0.2%); format: functional
PC-3 [16] = assay: Induction of cell cycle arrest in human PC-3 cells assessed as accumulation at G0/G1 phase at 5 uM after 48 hrs by propidium iodide staining based flow cytometric analysis (reference value: 67.6%); format: functional
PC-3 [17] = assay: Antiproliferative activity against human PC3 cells assessed as reduction in cell viability after 48 hrs by MTT assay; format: functional, cell-based; details: PC-3, 48 h
PC-3 [18] = assay: Induction of cell cycle arrest in human PC-3 cells assessed as accumulation at G2/M phase at 10 uM after 48 hrs by propidium iodide staining based flow cytometric analysis (reference value: 20.7%); format: functional
PC-3 [19] = assay: Induction of cell cycle arrest in human PC-3 cells assessed as accumulation at G0/G1 phase at 10 uM after 48 hrs by propidium iodide staining based flow cytometric analysis (reference value: 67.6%); format: functional
A549 = assay: Antiproliferative activity against human A549 cells assessed as reduction in cell viability after 48 hrs by MTT assay; format: functional, cell-based; details: A549, 48 h
PC-3 [20] = assay: Induction of apoptosis in human PC-3 cells after 24 hrs by Annexin VFITC/PI staining based flow cytometric analysis; format: functional, cell-based
DU-145 = assay: Antiproliferative activity against human DU-145 cells assessed as reduction in cell viability after 48 hrs by MTT assay; format: functional, cell-based; details: DU-145, 48 h
PC-3 [21] = assay: Induction of ROS generation in human PC-3 cells at 10 uM incubated for 6 hrs by DSCFDA staining based spectroflurometric method; format: functional, cell-based
PC-3 [22] = assay: Induction of apoptosis in human PC-3 cells assessed as late apoptotic cells at 2.5 uM after 24 hrs by Annexin VFITC/PI staining based flow cytometric analysis (reference value: 0.2%); format: functional
SiHa = assay: Antiproliferative activity against human SiHa cells assessed as reduction in cell viability after 48 hrs by MTT assay; format: functional, cell-based
U-87 MG = assay: Antiproliferative activity against human U87 cells assessed as reduction in cell viability after 48 hrs by MTT assay; format: functional, cell-based, U-87MG ATCC
PC-3 [23] = assay: Induction of apoptosis in human PC-3 cells assessed as viable cells at 2.5 uM after 24 hrs by Annexin VFITC/PI staining based flow cytometric analysis (reference value: 95.8%); format: functional; details: read-out: Activity
PC-3 [24] = assay: Induction of cell cycle arrest in human PC-3 cells assessed as accumulation at S phase at 5 uM after 48 hrs by propidium iodide staining based flow cytometric analysis (reference value: 7.69%); format: functional
HT-29 = assay: Antiproliferative activity against human HT-29 cells assessed as reduction in cell viability after 48 hrs by MTT assay; format: functional, cell-based; details: HT-29, 48 h
PC-3 [25] = assay: Induction of cell cycle arrest in human PC-3 cells assessed as accumulation at S phase at 10 uM after 48 hrs by propidium iodide staining based flow cytometric analysis (reference value: 7.69%); format: functional
PC-3 [26] = assay: Induction of apoptosis in human PC-3 cells assessed as condensed chromatin at 5 to 10 uM after 48 hrs by acridine orange and ethidium bromide staining fluorescence microscopic analysis; format: functional, cell-based; details: dose 5-10 µM
PC-3 [27] = assay: Induction of apoptosis in human PC-3 cells assessed as late apoptotic cells at 5 uM after 24 hrs by Annexin VFITC/PI staining based flow cytometric analysis (reference value: 0.2%); format: functional
PC-3 [28] = assay: Induction of apoptosis in human PC-3 cells assessed as necrotic cells at 7.5 uM after 24 hrs by Annexin VFITC/PI staining based flow cytometric analysis (reference value: 4%); format: functional
PC-3 [29] = assay: Induction of apoptosis in human PC-3 cells assessed as horse shoe shaped nuclei at 5 to 10 uM after 48 hrs by Hoechst 33258 staining fluorescence microscopic analysis; format: functional, cell-based; details: dose 5-10 µM
PC-3 [30] = assay: Induction of apoptosis in human PC-3 cells assessed as necrotic cells at 5 uM after 24 hrs by Annexin VFITC/PI staining based flow cytometric analysis (reference value: 4%); format: functional
PC-3 [31] = assay: Induction of apoptosis in human PC-3 cells assessed as condensed chromatin at 5 to 10 uM after 48 hrs by Hoechst 33258 staining fluorescence microscopic analysis; format: functional, cell-based; details: dose 5-10 µM
[32] = Inhibition of Saccharomyces cerevisiae alpha-glucosidase using p-nitophenyl alpha […]D-glucoside incubated for 45 mins
Saccharomyces cerevisiae [33] = assay: Potency index, ratio of Myrrhanone-B IC50 to test compound IC50 for inhibition of Saccharomyces cerevisiae alpha-glucosidase
Saccharomyces cerevisiae [34] = assay: Potency index, ratio of acarbose IC50 to test compound IC50 for inhibition of Saccharomyces cerevisiae alpha-glucosidase

IC50 [1] [µM] | IC50 (MDA-MB-231) [µM] | IC50 [8] [µM] | IC50 (A549) [µM] | IC50 (DU-145) [µM] | SMILES | Activity (PC-3 [2]) [%] | Activity (PC-3 [3]) [%] | Activity (PC-3 [4]) [%] | IC50 (L132) [µM] | Activity (PC-3 [5]) [%] | Activity (PC-3 [6]) [%] | Activity (PC-3 [7]) [%] | Activity (PC-3 [9]) | viability at 5 µM (PC-3 [10]) [%] | Activity (PC-3 [11]) [%] | Activity (PC-3 [12]) [%] | Activity (PC-3 [13]) | viability at 7.5 µM (PC-3 [14]) [%] | Activity (PC-3 [15]) [%] | Activity (PC-3 [16]) [%] | other results
8.88 | 26.3 | 9.25 | 28.1 | 33.1 | C/C(=C\CC/C(C)=C/CC[C@@H]1[C@@]2(C)CCC(=O)C(C)(C)[C@H]2CC[C@@]1(C)O)CC/C=C(\C)C(=O)OCc1cn(C[C@@H]2O[C@H](n3ccc(=O)[nH]c3=O)C[C@H]2O)nn1 | 59.4 | 40.8 | 38 | 148 | 5.96 | 0.9 | 16.6 | Active | 27.1 | 64.6 | 58.3 | Active | 27.9 | 12.8 | 68.7 | IC50 (PC-3 [17]): 10.8 µM; Activity (PC-3 [18]): 11.1%; Activity (PC-3 [19]): 41%; Activity (PC-3 [20]): Dose-dependent effect; Activity (PC-3 [21]): Active; Activity (PC-3 [22]): 8.6%; IC50 (SiHa): 29.3 µM; IC50 (U-87 MG): 75.8 µM; viability at 2.5 µM (PC-3 [23]): 26.9%; Activity (PC-3 [24]): 8.38%; IC50 (HT-29): 34.1 µM; Activity (PC-3 [25]): 6.76%; Activity (PC-3 [26]): Active; Activity (PC-3 [27]): 12.5%; Activity (PC-3 [28]): 1%; Activity (PC-3 [29]): Active; Activity (PC-3 [30]): 1%; Activity (PC-3 [31]): Active
 | 139 |  | 42.8 | 28.4 | C/C(=C\CC/C(C)=C/CC[C@@H]1[C@@]2(C)CCC(=O)C(C)(C)[C@H]2CC[C@@]1(C)O)CC/C=C(\C)C(=O)OCc1cn(-c2cccc(O)c2)nn1 | 58.8 | 2.16 | 22 | 146 | 2.09 | 0.8 | 22.7 | Active | 29.3 | 62.9 | 54.8 | Active | 31.7 | 12.1 | 66.5 | IC50 [32]: 14.2 µM; IC50 (PC-3 [17]): 6.57 µM; Activity (PC-3 [18]): 23.4%; Activity (PC-3 [19]): 66.5%; Activity (PC-3 [20]): Dose-dependent effect; Activity (PC-3 [21]): Active; Activity (PC-3 [22]): 8.7%; IC50 (SiHa): 48 µM; IC50 (U-87 MG): > 150 µM; viability at 2.5 µM (PC-3 [23]): 27.7%; Activity (PC-3 [24]): 8.26%; IC50 (HT-29): 38.6 µM; Activity (PC-3 [25]): 7.54%; Activity (PC-3 [26]): Active; Activity (PC-3 [27]): 10.9%; Activity (PC-3 [28]): 1.4%; Activity (PC-3 [29]): Active; Activity (PC-3 [30]): 1%; Activity (PC-3 [31]): Active
9.05 |  | 8.97 | > 150 | > 150 | C/C(=C\CC/C(C)=C/CC[C@@H]1[C@@]2(C)CCC(=O)C(C)(C)[C@H]2CC[C@@]1(C)O)CC/C=C(\C)C(=O)OCc1cn(-c2ccccc2[N+](=O)[O-])nn1 |  |  |  | > 150 |  |  |  |  |  |  |  |  |  |  |  | Ratio IC50 (Saccharomyces cerevisiae [33]): 60.2; Ratio IC50 (Saccharomyces cerevisiae [34]): 767
